Measurements reported in patent US20160143917A1, “COMPOSITIONS AND METHODS FOR MODULATING HIV ACTIVATION” (priority 2013, published 2016).
Several values for one entry are separate records, joined by “and”; a condition that tells them apart may be missing. Identical values can stand only once.

Legend:
[1] = tested on: latently HIV provirus infected Jurkat (T-cell) clone 2D10 cells carrying a GFP-expressing provirus; assay: Reactivation of latent HIV provirus (GFP expression) in 2D10 cells; assay type: cell-based, human; conditions: for Un-stimulated: drug alone, no TNFα or SAHA, drug concentration (Fulvestrant 2.5 μM, Y-134 5 μM, Endoxifen 5 μM, MPP 5 μM, Tamoxifen 10 μM, Gossypol 5 μM, PPT 100 μM, Stilbestrol 5 μM); for +400 pg/ml TNFα drug: pre-treatment with agonist at row concentration plus 400 pg/ml TNFα; for 2 μM SAHA drug: pre-treatment with agonist at row concentration plus 2 μM SAHA; for 250 nM SAHA drug: drug at row concentration plus sub-optimum 250 nM SAHA; for +100 pg/ml TNFα drug: drug plus sub-optimum 100 pg/ml TNFα
Text: Still other ESR-1 antagonists can be identified and screened for potential induction of latent HIV activation by using cell based assays described in Examples 1 and 2. For example to determine whether a composition or potential ESR-1 antagonist can induce HIV-1 provirus re-activation in latently infected primary T-cells (Th17), the ESR-1 antagonist can be administered to latently HIV provirus infected Jurkat (T-cell) clone 2D10 cells carrying a GFP-expressing provirus. The level of GFP expression can then be measured to determine activation. In another example, the ESR-1 antagonist can be administered to the latently infected primary T-cells (Th17) and phosphorylation of serine 175 of CDK9 can be measured by flow cytometry analysis. Along with CDK9 pSer175, expression of viral protein Nef can also measured.
FIG. 2 illustrates the ESR1 antagonist Fulvestrant weakly stimulates 2D10 reactivation and sensitizes the cells to reactivation by sub-optimal concentrations of TNF-α. A. Unstimulated cells showing the low basal activation levels of approximately 2%. […] C. Activation of cells with 2.5 μM Fulvestrant.
To further validate involvement of ESR-1 in latency maintenance program, we have examined a series of antagonists and agonist as represented in Table 2 on 2D10. In all the cases it was observed that blocking of ESR-1 by antagonist either constitutively re-activate or sensitizes the pro-virus to sub-optimum dose of TNFα (100 pg/ml) and SAHA (250 nM).

[2] = tested on: CHME5/HIV cells, a latently infected Fetal Microglia Cell line; assay: Reactivation of latent HIV provirus (GFP expression) in microglial cells; assay type: cell-based
Description: FIGS. 5(A-D) illustrate histograms showing GFP expression in CHME5/HIV cells, a latently infected Fetal Microglia Cell line carrying a GFP-expressing provirus, that are: (A) unstimulated; (B) administered a suboptimal dose of TNFα (10 ng/ml); (C) administered […] Fulvestrant; or (D) pre-treated with Fulvestrant and administered a suboptimal dose of TNFα.
A. Unstimulated CHME5/HIV cells, a latently infected Fetal Microglia Cell line. Basal activation levels were 2.31%. B. Reactivation of CHME5/HIV cells with a suboptimal dose of TNFα (10 ng/ml) induced 13.96% of the proviruses. C. […] These observations indicate that pro-virus reactivation by modulating the ESR-1 is specific for T-cell.

[3] = tested on: Latently HIV-1 infected Th17 primary cells; assay: Reactivation of latent provirus in primary Th17 cells, HIV Nef protein expression; assay type: cell-based; conditions: single agent; untreated cells 2.54%
Text: FIG. 3 illustrates latently infected primary T-cells are reactivated by the ESR1 antagonist, Fulvestrant (ICI.182780). […] B. Stimulation of the latently infected cells through the T-cell receptor using antibodies to CD3/CD28 re-activated 60.82% of the cells in the population. C. […] Method: Naive T-cells from healthy donors were activated using anti-CD3/[…] antibodies and polarized in the direction of primary Th-17 cells using a cocktail of cytokines. The exponentially growing cells were infected with HIV-1 virus containing d2EGFP fused to CD8a for surface expression of the reporter gene. The CD8a positive cells were purified using CD8a antibody conjugated magnetic beads. The HIV-1 infected cells were allowed to become quiescent by culturing in media containing minimal levels of IL2.

[4] = tested on: latently infected primary T-cells (Th17); assay: CDK9 pSer175 and Nef by flow cytometry in latently infected primary T-cells; assay type: cell-based
Description: At the time of HIV-1 provirus re-activation one of the key marker is phosphorylation of serine 175 amino acid residue of CDK9 (CDK9 pSer175). To determine the status of HIV-1 provirus re-activation in latently infected primary T-cells (Th17) by ESR-1 antagonist Tamoxifen, phosphorylation of serine 175 of CDK9 was measured by flow cytometry analysis. Along with CDK9 pSer175, expression of viral protein Nef was also measured. […] Keeping that in mind, latently infected primary T-cell was treated with tamoxifen and SAHA alone or in combination where sub-optimum dose of (250 nM) was used (FIGS. 11 B, D, E). […] Therefore re-activation of latent provirus in Gossypol and/or SAHA treated primary T-cell was also examined (FIGS. 11 C-D).

O=C(CCCCCCC(=O)Nc1ccccc1)NO [SAHA, suberoylanilide hydroxamic acid]
cells induced (GFP) ([1]; 250 nM SAHA alone (sub-optimum)): 5.25% | re-activation of the population (GFP) ([1]; 1 μM SAHA alone): 65.87% | 250 nM SAHA ([1]; Control (2D10), 250 nM SAHA alone, no ESR-1 drug): 14.34% | 2 μM SAHA ([1]; Control (2D10), 2 μM SAHA alone, no ESR-1 drug): 65.43% and 71.83%

CCCc1c(-c2ccc(O)cc2)nn(-c2ccc(O)cc2)c1-c1ccc(O)cc1 [PPT, 4,4′,4″-(4-Propyl-[1H]-pyrazole-1,3,5-triyl)trisphenol]
reactivation of latently infected cells (GFP) ([1]; 100 μM PPT alone): not reactivated | Un-stimulated [1]: 3.57% | activation of the cells (GFP) ([1]; pre-treatment with PPT, then SAHA (1 μM)): 8.77% | +400 pg/ml TNFα drug [1]: 13.41% | 2 μM SAHA drug [1]: 6.76% | reactivation induced by TNFα (GFP) ([1]; pretreatment with PPT for one hour, then 400 pg/ml TNFα): 13.41%

CC/C(=C(\c1ccc(O)cc1)c1ccc(OCCNC)cc1)c1ccccc1 [Endoxifen]
Un-stimulated [1]: 9.70% | 250 nM SAHA drug [1]: 26.63% | +100 pg/ml TNFα drug [1]: 29.31%

Cc1c(-c2ccc(O)cc2)nn(-c2ccc(O)cc2)c1-c1ccc(OCCN2CCCCC2)cc1 [MPP]
Un-stimulated [1]: 14.49% | 250 nM SAHA drug [1]: 31.14% | +100 pg/ml TNFα drug [1]: 39.60%

TNFα
proviruses induced (GFP) ([2]; 10 ng/ml TNFα alone (suboptimal), basal 2.31%): 13.96% | re-activation of latent provirus (GFP) ([1]; 100 pg/ml TNFα alone (sub-optimal)): 15.95% | proviral re-activation (GFP) ([1]; 400 pg/ml TNFα alone): 70.88% | +100 pg/ml TNFα ([1]; Control (2D10), 100 pg/ml TNFα alone, no ESR-1 drug): 16.15% | 400 pg/ml TNFα ([1]; Control (2D10), 400 pg/ml TNFα alone, no ESR-1 drug): 70.88% and 88.12% | proviruses stimulated (GFP) ([1]; phenol-red free media, 10% charcoal-stripped FBS (estrogen-depleted), 400 pg/ml TNFα alone): 79.59%

C[C@]12CC[C@@H]3c4ccc(O)cc4C[C@@H](CCCCCCCCC[S+]([O-])CCCC(F)(F)C(F)(F)F)[C@H]3[C@@H]1CC[C@@H]2O (stereo partly shown) [Fulvestrant]
stimulation of CHME5/HIV cells (GFP) ([2]; 2.5 mM Fulvestrant alone): did not stimulated CHME5/HIV cells beyond basal levels | sensitization towards TNFα stimulation (GFP) ([2]; pre-treatment with Fulvestrant, then suboptimal TNFα (10 ng/ml)): did not sensitize the latent population towards TNFα stimulation | reactivation of latent provirus (GFP) ([1]; 2.5 μM Fulvestrant alone): small but significant reactivation | GFP levels ([1]; 50 μM Fulvestrant alone): 8.05% | Un-stimulated [1]: 2.68% | 250 nM SAHA drug [1]: 17.78% | +100 pg/ml TNFα drug [1]: 41.01% | reactivation of latent population (GFP) ([1]; one hour pre-treatment with Fulvestrant, then 100 pg/ml TNFα): 41.01% | reactivation of pro-virus (GFP) ([1]; pre-treatment with Fulvestrant (50 μM) for one hour, then 250 nM SAHA): 18.80% | latent proviruses/cells re-activated, measured by expression of the HIV Nef protein [3]: 25.27%

CC/C(=C(\c1ccccc1)c1ccc(OCCN(C)C)cc1)c1ccccc1 [Tamoxifen]
Un-stimulated [1]: 12.09% | 250 nM SAHA drug [1]: 22.50% | +100 pg/ml TNFα drug [1]: 33.03% | re-activation of latent provirus (CDK9 pSer175 and Nef expression) ([4]; drug alone): failed to re-activate latent provirus | re-activation of latent provirus (CDK9 pSer175 and Nef expression) ([4]; drug combined with sub-optimum SAHA (250 nM)): elevated expression of both CDK9 pSer175 and Nef

CC/C(=C(/CC)c1ccc(O)cc1)c1ccc(O)cc1 [Stilbestrol]
Un-stimulated [1]: 6.20% | +400 pg/ml TNFα drug [1]: 33.70% | 2 μM SAHA drug [1]: 4.34% | effect of agonist pre-treatment on provirus re-activation ([1]; pre-treatment, optimum dose of TNFα (400 pg/ml) and SAHA (2 μM)): block the re-activation of latent pro-virus

C[C@]12CC[C@@H]3c4ccc(O)cc4CC[C@H]3[C@@H]1CC[C@@H]2O [β-estradiol]
stimulation of latent HIV proviruses (GFP) ([1]; estrogen-depleted media, 2 ng/ml β-estradiol alone): does not stimulate latent HIV proviruses | responsiveness to TNFα (GFP) ([1]; estrogen-depleted media, 2 ng/ml β-estradiol plus 400 pg/ml TNFα): did not enhance responsiveness

Cc1cc2c(C(C)C)c(O)c(O)c(C=O)c2c(O)c1-c1c(C)cc2c(C(C)C)c(O)c(O)c(C=O)c2c1O [Gossypol]
pro-virus re-activation (GFP) ([2]; Gossypol alone): 1.60% | re-activation of pro-virus (GFP) ([2]; Gossypol combined with 10 ng/ml TNFα (sub-optimum)): 10.24% | proviral re-activation (GFP) ([1]; 5 μM Gossypol alone): 30.58% | re-activation (GFP) ([1]; 5 μM Gossypol combined with 100 pg/ml TNFα (sub-optimum)): 60.15% | Un-stimulated [1]: 30.58% | +100 pg/ml TNFα drug [1]: 60.15%
